Patent US9545413B2, “Methods of forming ciclopirox or derivatives thereof in a subject by administration of prodrug” (The University of Kansas, priority 2010, dated 2017)
Where “and” joins values, the source holds several entries; their conditions need not be identical. Equal values may be shown once. Marks after values point to notes of the source that are not given here. Blank lines part the entries; values can stand above or below the compound they belong to.

How the values were obtained:
[1] = Mouse plasma ciclopirox pharmacokinetics after 30 mg/kg oral dose; format: in vivo
Experimental: The plasma ciclopirox (i.e., CPX) concentrations in (ng/mL) were determined following bolus administration of ciclopirox-POM prodrug at a 30 mg/kg orally in a mouse model. Time points where data collected are shown in Table 3 to be at 5, 15, 30, 60, 90, 120, 180, and 240 minutes along with the data. […] The oral formulation is a composition having Orasweet SF along with the […].
(§1) Time points where data collected are shown in Table 1 to be at 5, 15, 30, 60, 90, 120, 180, and 240 minutes along with the data.
Additionally, mouse oral dose pharmacokinetics were determined.
(§2) The IV bolus and oral administrations are described above.

[2] = Mouse plasma ciclopirox pharmacokinetics after 10 mg/kg IV bolus; format: in vivo; details: for Plasma Ciclopirox Concentrations: individual animals A-F, phosphate disodium salt
Experimental: The plasma ciclopirox concentrations in (ng/mL) were determined following bolus administration of ciclopirox-POM prodrug at a 10 mg/kg IV bolus in a mouse model. Time points where data collected are shown in Table 1 to be at 5, 15, 30, 60, 90, 120, 180, and 240 minutes along with the data. […] The IV bolus formulation for prodrug was in 25 mM phosphate buffer.
as §1
Additionally, mouse intravenous dose pharmacokinetics were determined.
as §2

[3] = Detection of prodrug in plasma and urine after administration; format: in vivo
Description: Accordingly, ciclopirox is readily bioavailable when given IV as the prodrug. […] Based on the data, it is reasonable to believe that the ciclopirox-POM prodrug is rapidly converted to ciclopirox.
Accordingly, ciclopirox is readily bioavailable when given IV as the prodrug. […] Based on the data, it is reasonable to believe that the ciclopirox-POM prodrug is rapidly converted back to ciclopirox.

[4] = system: NMIBC and MIBC cell lines; test: Anticancer activity in bladder cancer cell lines; format: cell-based
Description: (§3) Bladder cancer presents as two diseases, NMIBC and muscle invasive bladder cancer (MIBC). Approximately three-fourths of newly diagnosed bladder cancer patients present with NMIBC. NMIBC, as it invades into bladder muscle, becomes MIBC. MIBC often metastasizes, requiring systemically administered chemotherapy agents. […] The ciclopirox from ciclopirox-POM prodrug delivery inhibits cell proliferation, colony formation, and spheroid formation in well characterized NMIBC and MIBC cell lines. Although that ciclopirox's fungicidal activity is mediated through its ability to chelate iron, and interrupt iron-dependent intracellular processes, ciclopirox in vitro anti-cancer activity in independent of commercially available iron chelators. […] Accordingly, ciclopirox-POM prodrug can be used in treatment of all forms of bladder cancer, and in cancer stem cells of many different cancers where the Notch signaling pathway is active.

[5] = system: Notch-1 signaling pathway; test: Inhibition of Notch-1 signaling; format: cell-based; details: bladder cancer
Description: The prodrug converts to the active ciclopirox compound that effectively suppresses stem cells in bladder cancer and specifically targets the Notch-1 signaling pathway. […] Suppressing Notch is a significant activity for the compound to inhibit bladder and other cancers where Notch signaling is active (e.g. colon cancer, osteosarcoma).
as §3

[6] = mouse, in vivo, po, 30 mg/kg, Plasma Ciclopirox Concentrations
[7] = mouse, in vivo, po, 30 mg/kg, Plasma Ciclopirox Concentrations, Mean
[8] = in vivo, iv, 10 mg/kg, Plasma Ciclopirox Concentrations
[9] = in vivo, iv, 10 mg/kg, Plasma Ciclopirox Concentrations, Mean
[10] = ciclopirox, mouse, 30 mg/kg oral

bioavailability ([1]; mouse, in vivo, po): 21% | AUC ([1]; mouse, in vivo, po, 30 mg/kg): 956 ng·h/mL | Beta rate constant ([1]; mouse, in vivo, po, 30 mg/kg): 0.00916 min⁻¹ | CL/F ([1]; mouse, in vivo, po, 30 mg/kg): 405 mL/min/kg | Cmax ([1]; mouse, in vivo, po, 30 mg/kg): 548 ng/mL | Tmax ([1]; mouse, in vivo, po, 30 mg/kg): 15 min | half-life ([1]; mouse, in vivo, po, 30 mg/kg): 75.7 min | Plasma Ciclopirox Concentrations ([1]; mouse, in vivo, po, 30 mg/kg, 0 min): 0 ng/mL | concentration at 0 min [1, 6]: 0 ng/mL | concentration at 15 min [1, 6]: 478 ng/mL | concentration at 30 min [1, 6]: 427 ng/mL | concentration at 180 min [1, 6]: 78.2 ng/mL | concentration at 240 min [1, 6]: 72.3 ng/mL | concentration at 0 min [1, 7]: 0 ng/mL | concentration at 15 min [1, 7]: 548 ng/mL | concentration at 30 min [1, 7]: 449 ng/mL | concentration at 60 min [1, 7]: 309 ng/mL | concentration at 90 min [1, 7]: 260 ng/mL | concentration at 120 min [1, 7]: 151 ng/mL | concentration at 180 min [1, 7]: 80.1 ng/mL | concentration at 240 min [1, 7]: 74.7 ng/mL | Alpha rate constant ([2]; in vivo, iv, 10 mg/kg): 0.08802 min⁻¹ | Beta rate constant ([2]; in vivo, iv, 10 mg/kg): 0.01208 min⁻¹ | Vdbeta ([2]; in vivo, iv, 10 mg/kg): 4.5652 L/kg | clearance ([2]; in vivo, iv, 10 mg/kg): 55.2 mL/min/kg | AUC ([2]; in vivo, iv, 10 mg/kg, AUC (CPX AUC)): 2340 ng·h/mL | half-life ([2]; in vivo, iv, 10 mg/kg, Alpha Half-life): 7.87 min | half-life ([2]; in vivo, iv, 10 mg/kg, Beta Half-life): 57.4 min | concentration at 5 min [2, 8]: 6090 ng/mL | concentration at 60 min [2, 8]: 171 ng/mL | concentration at 90 min [2, 8]: 45.2 ng/mL | concentration at 120 min [2, 8]: 46.1 ng/mL | concentration at 240 min [2, 8]: 12 ng/mL | concentration at 5 min [2, 9]: 4880 ng/mL | concentration at 15 min [2, 9]: 892 ng/mL | concentration at 30 min [2, 9]: 354 ng/mL | concentration at 60 min [2, 9]: 133 ng/mL | concentration at 90 min [2, 9]: 58.7 ng/mL | concentration at 120 min [2, 9]: 43.2 ng/mL | concentration at 180 min [2, 9]: 25.2 ng/mL | concentration at 240 min [2, 9]: 15.9 ng/mL
SMILES: Cc1cc(C2CCCCC2)n(O)c(=O)c1 [Ciclopirox Olamine, reference compound]

Detection of the prodrug in plasma ([3]; following IV and oral administration): inability to detect | Detection of the prodrug in plasma and urine ([3]; following IV, oral, subcutaneous and intraperitoneal administration): inability to detect | Beta Half-life [1, 10]: 52.76 min | Beta rate constant [1, 10]: 0.01316 min⁻¹ | CL/F [1, 10]: 722.06 mL/min/kg | Cmax [1, 10]: 520.3 ng/mL | Tmax [1, 10]: 15 min | Bioavailability following oral administration ([1]; mice, oral administration): 12% | Plasma Ciclopirox Concentrations ([1]; mouse, 30 mg/kg oral dose, 0 min, individual animals A-F): 0 ng/mL | Plasma Ciclopirox Concentrations, Mean ([1]; mouse, 30 mg/kg oral dose, 0 min): 0 ng/mL | Plasma Ciclopirox Concentrations, Mean ([1]; mouse, 30 mg/kg oral dose, 15 min): 520.3 ng/mL | Plasma Ciclopirox Concentrations, Mean ([1]; mouse, 30 mg/kg oral dose, 30 min): 280.7 ng/mL | Plasma Ciclopirox Concentrations, Mean ([1]; mouse, 30 mg/kg oral dose, 60 min): 215.7 ng/mL | Plasma Ciclopirox Concentrations, Mean ([1]; mouse, 30 mg/kg oral dose, 90 min): 106.9 ng/mL | Plasma Ciclopirox Concentrations, Mean ([1]; mouse, 30 mg/kg oral dose, 120 min): 72.5 ng/mL | Plasma Ciclopirox Concentrations, Mean ([1]; mouse, 30 mg/kg oral dose, 180 min): 49.4 ng/mL | Plasma Ciclopirox Concentrations, Mean ([1]; mouse, 30 mg/kg oral dose, 240 min): 20.1 ng/mL | Foral ([1]; mouse, oral 30 mg/kg v. IV bolus 10 mg/kg of the same substance): 0.06686 | CPX Bioavailability Following Prodrug Administration ([1]; mouse, oral administration, prodrug compared to olamine salt): 0.5603 | Plasma Ciclopirox Concentrations, Mean ([2]; 10 mg/kg IV bolus, 5 min): 8005 ng/mL | Plasma Ciclopirox Concentrations, Mean ([2]; 10 mg/kg IV bolus, 15 min): 2763.3 ng/mL | Plasma Ciclopirox Concentrations, Mean ([2]; 10 mg/kg IV bolus, 30 min): 957 ng/mL | Plasma Ciclopirox Concentrations, Mean ([2]; 10 mg/kg IV bolus, 60 min): 342.8 ng/mL | Plasma Ciclopirox Concentrations, Mean ([2]; 10 mg/kg IV bolus, 90 min): 123 ng/mL | Plasma Ciclopirox Concentrations, Mean ([2]; 10 mg/kg IV bolus, 120 min): 60.9 ng/mL | Plasma Ciclopirox Concentrations, Mean ([2]; 10 mg/kg IV bolus, 180 min): 25.5 ng/mL | Plasma Ciclopirox Concentrations, Mean ([2]; 10 mg/kg IV bolus, 240 min): 11.1 ng/mL | CPX Bioavailability Following Prodrug Administration ([2]; IV administration, prodrug compared to olamine salt): 1.143 | Alpha Half-life ([2]; ciclopirox, 10 mg/kg IV bolus): 9.84 min | Alpha rate constant ([2]; ciclopirox, 10 mg/kg IV bolus): 0.07043 min⁻¹ | Beta Half-life ([2]; ciclopirox, 10 mg/kg IV bolus): 35.92 min | Beta rate constant ([2]; ciclopirox, 10 mg/kg IV bolus): 0.01929 min⁻¹ | CL ([2]; ciclopirox, 10 mg/kg IV bolus): 48.275* mL/min/kg | Vdbeta ([2]; ciclopirox, 10 mg/kg IV bolus): 2.502 L/kg
SMILES: Cc1cc(C2CCCCC2)n(OCOP(=O)([O-])[O-])c(=O)c1.[Na+].[Na+] [Ciclopirox-POM]
Plasma Ciclopirox Concentrations ([1]; mouse, 30 mg/kg oral dose, 15 min, individual animals A-F, phosphate disodium salt, 30 mg/kg): 388 ng/mL and 646 ng/mL and 857 ng/mL and 245 ng/mL and 479 ng/mL and 507 ng/mL | Plasma Ciclopirox Concentrations ([1]; mouse, 30 mg/kg oral dose, 30 min, individual animals A-F, phosphate disodium salt, 30 mg/kg): 302 ng/mL and 252 ng/mL and 264 ng/mL and 317 ng/mL and 207 ng/mL and 342 ng/mL | Plasma Ciclopirox Concentrations ([1]; mouse, 30 mg/kg oral dose, 60 min, individual animals A-F, phosphate disodium salt, 30 mg/kg): 129 ng/mL and 404 ng/mL and 154 ng/mL and 229 ng/mL and 171 ng/mL and 207 ng/mL | Plasma Ciclopirox Concentrations ([1]; mouse, 30 mg/kg oral dose, 90 min, individual animals A-F, phosphate disodium salt, 30 mg/kg): 91 ng/mL and 66.8 ng/mL and 146 ng/mL and 137 ng/mL and 120 ng/mL and 80.3 ng/mL | Plasma Ciclopirox Concentrations ([1]; mouse, 30 mg/kg oral dose, 120 min, individual animals A-F, phosphate disodium salt, 30 mg/kg): 72.5 ng/mL and 60.6 ng/mL and 64.6 ng/mL and 81.4 ng/mL and 83.6 ng/mL | Plasma Ciclopirox Concentrations ([1]; mouse, 30 mg/kg oral dose, 180 min, individual animals A-F, phosphate disodium salt, 30 mg/kg): 36.8 ng/mL and 45.1 ng/mL and 59.1 ng/mL and 66.4 ng/mL and 44.9 ng/mL and 44 ng/mL | Plasma Ciclopirox Concentrations ([1]; mouse, 30 mg/kg oral dose, 240 min, individual animals A-F, phosphate disodium salt, 30 mg/kg): 9.51 ng/mL and 19 ng/mL (2×) and 14.7 ng/mL and 38.1 ng/mL | Plasma Ciclopirox Concentrations ([2]; 10 mg/kg IV bolus, 5 min, 10 mg/kg): 7280 ng/mL and 7320 ng/mL and 6370 ng/mL and 9700 ng/mL and 8500 ng/mL and 8860 ng/mL | Plasma Ciclopirox Concentrations ([2]; 10 mg/kg IV bolus, 15 min, 10 mg/kg): 3310 ng/mL and 3180 ng/mL and 1520 ng/mL and 1370 ng/mL and 4010 ng/mL and 3190 ng/mL | Plasma Ciclopirox Concentrations ([2]; 10 mg/kg IV bolus, 30 min, 10 mg/kg): 994 ng/mL and 1200 ng/mL and 986 ng/mL and 1030 ng/mL and 1080 ng/mL and 452 ng/mL | Plasma Ciclopirox Concentrations ([2]; 10 mg/kg IV bolus, 60 min, 10 mg/kg): 410 ng/mL and 259 ng/mL (2×) and 284 ng/mL and 409 ng/mL and 436 ng/mL | Plasma Ciclopirox Concentrations ([2]; 10 mg/kg IV bolus, 90 min, 10 mg/kg): 97.6 ng/mL and 157 ng/mL and 74.2 ng/mL and 79.1 ng/mL and 162 ng/mL and 168 ng/mL | Plasma Ciclopirox Concentrations ([2]; 10 mg/kg IV bolus, 120 min, 10 mg/kg): 58 ng/mL and 73.7 ng/mL and 57.9 ng/mL and 19.3 ng/mL and 71.7 ng/mL and 84.8 ng/mL | Plasma Ciclopirox Concentrations ([2]; 10 mg/kg IV bolus, 180 min, 10 mg/kg): 18.1 ng/mL and 23 ng/mL and 19.5 ng/mL and 34.8 ng/mL and 19.7 ng/mL and 37.7 ng/mL | Plasma Ciclopirox Concentrations ([2]; 10 mg/kg IV bolus, 240 min, 10 mg/kg): 13 ng/mL and 10 ng/mL (2×) and 15 ng/mL and 12 ng/mL and 8 ng/mL

SMILES: Cc1cc(C2CCCCC2)n(O)c(=O)c1 [ciclopirox, 6-cyclohexyl-1-hydroxy-4-methylpyridin-2(1H)-one]
Cell proliferation [4]: inhibits | Colony formation [4]: inhibits | Spheroid formation [4]: inhibits | Notch-1 signaling pathway [5]: inhibits
